{"source": "patent EP0595557A1", "about": "“New substituted azetidinones as anti-inflammatory and antidegenerative agents” (MERCK & CO. INC., priority 1992, dated 1994)", "biological_target": "T1, Human Polymorphonuclear Leukocyte Elastase (Homo sapiens, UniProt P08246)", "T1 construct": "Crude extract of human polymorphonuclear leukocytes (PMN) containing elastase activity; from tissue; host or cells: human polymorphonuclear leukocytes (crude extract)", "T1 sequence (P08246 30-267)": "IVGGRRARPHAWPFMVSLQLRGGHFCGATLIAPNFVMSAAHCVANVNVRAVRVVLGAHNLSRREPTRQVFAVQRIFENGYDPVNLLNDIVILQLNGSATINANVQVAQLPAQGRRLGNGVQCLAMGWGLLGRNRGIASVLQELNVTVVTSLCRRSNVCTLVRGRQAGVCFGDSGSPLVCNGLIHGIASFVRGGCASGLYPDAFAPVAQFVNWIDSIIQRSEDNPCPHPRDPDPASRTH", "experiment": "Enzyme assay for inhibition of human polymorphonuclear leukocyte elastase via hydrolysis of Boc-AAPAN or Boc-AAPVN", "type": "biochemical", "conditions": "pH 7.5, second order rate constant for inactivation of the enzyme, expressed to the nearest thousand, read-out: Kobs/[I]", "method_in_brief": "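Crude human PMN extract as enzyme source, with 0.2 mM Boc-AAPAN in 0.05M TES buffer pH 7.5. Inhibitors in DMSO were added to substrate before the extract, and rate was followed as ΔOD/min at 410 mµ. Values are kobs/I, the second-order inactivation rate constant (per mole per second).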", "data": [{"compound": "CCC[C@@H](NC(=O)N1C(=O)C(CC)(CC)[C@@H]1Oc1ccc(C(=O)N2CCC[C@H]2CN2CCCC2)cc1)c1ccc(C)cc1", "note": "[Compound 119]", "values": [{"measurement": "kinact/KI", "result": "2.69e+06", "unit": "M⁻¹ s⁻¹"}]}, {"compound": "CCC[C@@H](NC(=O)N1C(=O)C(CC)(CC)[C@@H]1Oc1ccc(C(=O)NCCN2CCC(O)CC2)cc1)c1ccc(C)cc1", "note": "[Compound 120, [S-(R+,S*)]-3,3-diethyl-2-[4-[[[2-(4-hydroxy-1-piperidinyl)ethyl]amino]carbonyl]phenoxy]-N-[1-(4-methyl-phenyl)butyl]-4-oxo-1-azetidine-carboxamide]", "values": [{"measurement": "kinact/KI", "result": "1.73e+06", "unit": "M⁻¹ s⁻¹"}]}, {"compound": "CCC[C@@H](NC(=O)N1C(=O)C(CC)(CC)[C@@H]1Oc1ccc(C(=O)NCCN2CCCCCC2)cc1)c1ccc(C)cc1", "note": "[Compound 121]", "values": [{"measurement": "kinact/KI", "result": "2.07e+06", "unit": "M⁻¹ s⁻¹"}]}, {"compound": "CCC[C@@H](NC(=O)N1C(=O)C(CC)(CC)[C@@H]1Oc1ccc(C(=O)N(C)CCN2CCCCCC2)cc1)c1ccc(C)cc1", "note": "[Compound 122]", "values": [{"measurement": "kinact/KI", "result": "2.9e+06", "unit": "M⁻¹ s⁻¹"}]}, {"compound": "CCC[C@@H](NC(=O)N1C(=O)C(CC)(CC)[C@@H]1Oc1ccc(C(=O)NCCN2CCCC(O)C2)cc1)c1ccc(C)cc1", "note": "(stereo partly shown) [Compound 123]", "values": [{"measurement": "kinact/KI", "result": "1.53e+06", "unit": "M⁻¹ s⁻¹"}]}, {"compound": "CCC[C@@H](NC(=O)N1C(=O)C(CC)(CC)[C@@H]1Oc1ccc(C(=O)N(C)CCN2CCCC(O)C2)cc1)c1ccc(C)cc1", "note": "(stereo partly shown) [Compound 124]", "values": [{"measurement": "kinact/KI", "result": "1.96e+06", "unit": "M⁻¹ s⁻¹"}]}, {"compound": "CCC[C@@H](NC(=O)N1C(=O)C(CC)(CC)[C@@H]1Oc1ccc(C(=O)N(C)CCN(C)Cc2ccccc2)cc1)c1ccc(C)cc1", "note": "[Compound 125]", "values": [{"measurement": "kinact/KI", "result": "2.05e+06", "unit": "M⁻¹ s⁻¹"}]}, {"compound": "CCC[C@@H](NC(=O)N1C(=O)C(CC)(CC)[C@@H]1Oc1ccc(C(=O)N(C)CCN2CCC(OCc3ccccc3)CC2)cc1)c1ccc(C)cc1", "note": "[Compound 126]", "values": [{"measurement": "kinact/KI", "result": "3.48e+06", "unit": "M⁻¹ s⁻¹"}]}, {"compound": "CCC[C@@H](NC(=O)N1C(=O)C(CC)(CC)[C@@H]1Oc1ccc(C(=O)N(CCC)CCC)cc1)c1ccc(C)cc1", "note": "[Compound 127]", "values": [{"measurement": "kinact/KI", "result": 990000, "unit": "M⁻¹ s⁻¹"}]}, {"compound": "CCC[C@@H](NC(=O)N1C(=O)C(CC)(CC)[C@@H]1Oc1ccc(C(=O)N(CC)CC)cc1)c1ccc(C)cc1", "note": "[Compound 128]", "values": [{"measurement": "kinact/KI", "result": "1.45e+06", "unit": "M⁻¹ s⁻¹"}]}, {"compound": "CCC[C@@H](NC(=O)N1C(=O)C(CC)(CC)[C@@H]1Oc1ccc(C(=O)N(C)CCN2CCC(O)CC2)cc1)c1ccc(C)cc1", "note": "[Compound 129]", "values": [{"measurement": "kinact/KI", "result": "1.99e+06", "unit": "M⁻¹ s⁻¹"}]}, {"compound": "CCC[C@@H](NC(=O)N1C(=O)C(CC)(CC)[C@@H]1Oc1ccc(C(=O)N(C)CCN2CCC(=O)CC2)cc1)c1ccc(C)cc1", "note": "[Compound 130]", "values": [{"measurement": "kinact/KI", "result": "2.3e+06", "unit": "M⁻¹ s⁻¹"}]}, {"compound": "CCC[C@@H](NC(=O)N1C(=O)C(CC)(CC)[C@@H]1Oc1ccc(C(=O)NCCN2CCC(O)C2)cc1)c1ccc(C)cc1", "note": "(stereo partly shown) [Compound 131]", "values": [{"measurement": "kinact/KI", "result": "1.11e+06", "unit": "M⁻¹ s⁻¹"}]}, {"compound": "CCC[C@@H](NC(=O)N1C(=O)C(CC)(CC)[C@@H]1Oc1ccc(C(=O)N(CC)CCN2CCCCC2)cc1)c1ccc(C)cc1", "note": "[Compound 132]", "values": [{"measurement": "kinact/KI", "result": "1.24e+06", "unit": "M⁻¹ s⁻¹"}]}, {"compound": "CCC[C@@H](NC(=O)N1C(=O)C(CC)(CC)[C@@H]1Oc1ccc(C(=O)N(CCN2CCCCC2)Cc2ccccc2)cc1)c1ccc(C)cc1", "note": "[Compound 133]", "values": [{"measurement": "kinact/KI", "result": "1.52e+06", "unit": "M⁻¹ s⁻¹"}]}, {"compound": "CCC[C@@H](NC(=O)N1C(=O)C(CC)(CC)[C@@H]1Oc1ccc(C(=O)Nc2ccc(F)cc2)cc1)c1ccc(C)cc1", "note": "[Compound 134]", "values": [{"measurement": "kinact/KI", "result": 724000, "unit": "M⁻¹ s⁻¹"}]}, {"compound": "CCC[C@@H](NC(=O)N1C(=O)C(CC)(CC)[C@@H]1Oc1ccc(C(=O)Nc2cccc(Cl)c2)cc1)c1ccc(C)cc1", "note": "[Compound 135]", "values": [{"measurement": "kinact/KI", "result": 201000, "unit": "M⁻¹ s⁻¹"}]}, {"compound": "CCC[C@@H](NC(=O)N1C(=O)C(CC)(CC)[C@@H]1Oc1ccc(C(=O)N(CCN(C)C)Cc2ccccc2)cc1)c1ccc(C)cc1", "note": "[Compound 137]", "values": [{"measurement": "kinact/KI", "result": "1.38e+06", "unit": "M⁻¹ s⁻¹"}]}, {"compound": "CCC[C@@H](NC(=O)N1C(=O)C(CC)(CC)[C@@H]1Oc1ccc(C(=O)N(C)CCN2CCC(O)C2)cc1)c1ccc(C)cc1", "note": "(stereo partly shown) [Compound 138]", "values": [{"measurement": "kinact/KI", "result": 960000, "unit": "M⁻¹ s⁻¹"}]}, {"compound": "CCC[C@@H](NC(=O)N1C(=O)C(CC)(CC)[C@@H]1Oc1ccc(C(=O)N(CCN2CCCCC2)Cc2cccnc2)cc1)c1ccc(C)cc1", "note": "[Compound 139]", "values": [{"measurement": "kinact/KI", "result": "1.19e+06", "unit": "M⁻¹ s⁻¹"}]}, {"compound": "CCC[C@@H](NC(=O)N1C(=O)C(CC)(CC)[C@@H]1Oc1ccc(C(=O)NC(C)CCCN(CC)CC)cc1)c1ccc(C)cc1", "note": "(stereo partly shown) [Compound 140]", "values": [{"measurement": "kinact/KI", "result": "1.36e+06", "unit": "M⁻¹ s⁻¹"}]}, {"compound": "CCC[C@@H](NC(=O)N1C(=O)C(CC)(CC)[C@@H]1Oc1ccc(C(=O)NCCN2CCC[C@H]2CO)cc1)c1ccc(C)cc1", "note": "[Compound 141]", "values": [{"measurement": "kinact/KI", "result": "1.51e+06", "unit": "M⁻¹ s⁻¹"}]}, {"compound": "CCC[C@@H](NC(=O)N1C(=O)C(CC)(CC)[C@@H]1Oc1ccc(C(=O)N(C)CCN2CCN(C(=O)OC(C)(C)C)CC2)cc1)c1ccc(C)cc1", "note": "[Compound 142]", "values": [{"measurement": "kinact/KI", "result": "3.47e+06", "unit": "M⁻¹ s⁻¹"}]}, {"compound": "CCC[C@@H](NC(=O)N1C(=O)C(CC)(CC)[C@@H]1Oc1ccc(C(=O)N(CCN(C)C)CCN(C)C)cc1)c1ccc(C)cc1", "note": "[Compound 143]", "values": [{"measurement": "kinact/KI", "result": "1.88e+06", "unit": "M⁻¹ s⁻¹"}]}, {"compound": "CCC[C@@H](NC(=O)N1C(=O)C(CC)(CC)[C@@H]1Oc1ccc(C(=O)N(CCN(CC)CC)CCN(CC)CC)cc1)c1ccc(C)cc1", "note": "[Compound 144]", "values": [{"measurement": "kinact/KI", "result": "1.51e+06", "unit": "M⁻¹ s⁻¹"}]}, {"compound": "CCC[C@@H](NC(=O)N1C(=O)C(CC)(CC)[C@@H]1Oc1ccc(C(=O)N(C)CCN(C)Cc2cccnc2)cc1)c1ccc(C)cc1", "note": "[Compound 145]", "values": [{"measurement": "kinact/KI", "result": "2.88e+06", "unit": "M⁻¹ s⁻¹"}]}, {"compound": "CCC[C@@H](NC(=O)N1C(=O)C(CC)(CC)[C@@H]1Oc1ccc(C(=O)N2CC(C)NC(C)C2)cc1)c1ccc(C)cc1", "note": "(stereo partly shown) [Compound 146]", "values": [{"measurement": "kinact/KI", "result": "1.52e+06", "unit": "M⁻¹ s⁻¹"}]}, {"compound": "CCC[C@@H](NC(=O)N1C(=O)C(CC)(CC)[C@@H]1Oc1ccc(C(=O)N(C)CC[N+](C)([O-])Cc2ccccc2)cc1)c1ccc(C)cc1", "note": "(stereo partly shown) [Compound 147]", "values": [{"measurement": "kinact/KI", "result": "2.49e+06", "unit": "M⁻¹ s⁻¹"}]}, {"compound": "CCC[C@@H](NC(=O)N1C(=O)C(CC)(CC)[C@@H]1Oc1ccc(C(=O)N(C)CCN(C)Cc2ccncc2)cc1)c1ccc(C)cc1", "note": "[Compound 148]", "values": [{"measurement": "kinact/KI", "result": "2.39e+06", "unit": "M⁻¹ s⁻¹"}]}, {"compound": "CCC[C@@H](NC(=O)N1C(=O)C(CC)(CC)[C@@H]1Oc1ccc(C(=O)N2CCC[C@H]2CN(C)Cc2ccccc2)cc1)c1ccc(C)cc1", "note": "[Compound 149]", "values": [{"measurement": "kinact/KI", "result": "3.27e+06", "unit": "M⁻¹ s⁻¹"}]}, {"compound": "CCC[C@@H](NC(=O)N1C(=O)C(CC)(CC)[C@@H]1Oc1ccc(C(=O)N(C)CCN(C)Cc2ccccn2)cc1)c1ccc(C)cc1", "note": "[Compound 150]", "values": [{"measurement": "kinact/KI", "result": "2.16e+06", "unit": "M⁻¹ s⁻¹"}]}, {"compound": "CCC[C@@H](NC(=O)N1C(=O)C(CC)(CC)[C@@H]1Oc1ccc(C(=O)N(C)CCN2CCNCC2)cc1)c1ccc(C)cc1", "note": "[Compound 151]", "values": [{"measurement": "kinact/KI", "result": "1.19e+06", "unit": "M⁻¹ s⁻¹"}]}, {"compound": "CCC[C@@H](NC(=O)N1C(=O)C(CC)(CC)[C@@H]1Oc1ccc(C(=O)N2CCCNCC2)cc1)c1ccc(C)cc1", "note": "[Compound 152]", "values": [{"measurement": "kinact/KI", "result": "1.95e+06", "unit": "M⁻¹ s⁻¹"}]}, {"compound": "CCC[C@@H](NC(=O)N1C(=O)C(CC)(CC)[C@@H]1Oc1ccc(C(=O)N(C)CCN(C)CCc2ccccc2)cc1)c1ccc(C)cc1", "note": "[Compound 153]", "values": [{"measurement": "kinact/KI", "result": "2.8e+06", "unit": "M⁻¹ s⁻¹"}]}, {"compound": "CCC[C@@H](NC(=O)N1C(=O)C(CC)(CC)[C@@H]1Oc1ccc(C(=O)N2CCC[C@@H]2CN2CCCC2)cc1)c1ccc(C)cc1", "note": "[Compound 154]", "values": [{"measurement": "kinact/KI", "result": "1.67e+06", "unit": "M⁻¹ s⁻¹"}]}, {"compound": "CCC[C@@H](NC(=O)N1C(=O)C(CC)(CC)[C@@H]1Oc1ccc(C(=O)N2CCCN(Cc3ccccc3)CC2)cc1)c1ccc(C)cc1", "note": "[Compound 155]", "values": [{"measurement": "kinact/KI", "result": "1.98e+06", "unit": "M⁻¹ s⁻¹"}]}, {"compound": "CCC[C@@H](NC(=O)N1C(=O)C(CC)(CC)[C@@H]1Oc1ccc(C(=O)N(C)CC(O)C(O)C(O)C(O)CO)cc1)c1ccc(C)cc1", "note": "(stereo partly shown) [Compound 156]", "values": [{"measurement": "kinact/KI", "result": "1.2e+06", "unit": "M⁻¹ s⁻¹"}]}, {"compound": "CCC[C@@H](NC(=O)N1C(=O)C(CC)(CC)[C@@H]1Oc1ccc(C(=O)N(C)CC(OC(C)=O)C(OC(C)=O)C(OC(C)=O)C(COC(C)=O)OC(C)=O)cc1)c1ccc(C)cc1", "note": "(stereo partly shown) [Compound 157]", "values": [{"measurement": "kinact/KI", "result": "1.17e+06", "unit": "M⁻¹ s⁻¹"}]}, {"compound": "CCC[C@@H](NC(=O)N1C(=O)C(CC)(CC)[C@@H]1Oc1ccc(C(=O)N(C)CCN(C)Cc2cccc3ccccc23)cc1)c1ccc(C)cc1", "note": "[Compound 158]", "values": [{"measurement": "kinact/KI", "result": "1.08e+06", "unit": "M⁻¹ s⁻¹"}]}, {"compound": "CCC[C@@H](NC(=O)N1C(=O)C(CC)(CC)[C@@H]1Oc1ccc(C(=O)N(C)CCN(Cc2ccccc2)Cc2ccccc2)cc1)c1ccc(C)cc1", "note": "[Compound 161]", "values": [{"measurement": "kinact/KI", "result": "1.02e+06", "unit": "M⁻¹ s⁻¹"}]}]}
